Reference: ChEMBL document CHEMBL4651402, “Screening of ~5500 FDA-approved drugs and clinical candidates for anti-SARS-CoV-2 activity” (2021)

System: SARS-CoV-2
Test: microbe, parasite or virus in culture
Details: Severe acute respiratory syndrome coronavirus 2, Vero C1008, 48 h

Compound | IC50 [µM] | IC50 (read-out: pIC50 (converted)) [µM]
CC(C)Nc1ccc(Nc2ccccc2)cc1 | > 20 | > 20
Cc1nc2n(c(=O)c1CCN1CCC(c3noc4cc(F)ccc34)CC1)CCC[C@@H]2O | > 20 | > 20
C=C1C(=O)[C@]23[C@H](O)[C@H]1CC[C@H]2[C@@]12CO[C@]3(O)[C@@H](O)[C@@H]1C(C)(C)CC[C@@H]2O [ORIDONIN] | > 20 | > 20
CCN1CCc2nc(N)oc2CC1 [AZEPEXOLE] | > 20 | > 20
CO[C@H]1/C=C\O[C@@]2(C)Oc3c(C)c(O)c4c(=O)c(c5oc6cc(N7CCN(CC(C)C)CC7)cc(O)c6nc-5c4c3C2=O)NC(=O)/C(C)=C\C=C/[C@H](C)[C@H](O)[C@@H](C)[C@@H](O)[C@@H](C)[C@H](OC(C)=O)[C@@H]1C | > 20 | > 20
Clc1ccc(C(Cn2ccnc2)OCc2c(Cl)cccc2Cl)c(Cl)c1 (configuration not stated) [ISOCONAZOLE] | > 20 | > 20
CCN[C@H]1CN(CCCOC)S(=O)(=O)c2sc(S(N)(=O)=O)cc21 [BRINZOLAMIDE] | > 20 | > 20
CN(Cc1ccc(C(C)(C)C)cc1)Cc1cccc2ccccc12 [BUTENAFINE] | > 20 | > 20
CC(=O)NC(=O)c1ccccc1O [SALACETAMIDE] | > 20 | > 20
CCC1(CC)C(=O)NC(=O)N(C)C1=O [METHARBITAL] | > 20 | > 20
Cc1c(C)c2c(c(C)c1O)CCC(C)(C(=O)O)O2 (configuration not stated) [TROLOX] | > 20 | > 20
CCOC(=O)Nc1ccc(SC[C@H]2CO[C@](Cn3ccnc3)(c3ccc(Cl)cc3Cl)O2)cc1 | > 20 | > 20
c1ccc([C@@H]2CN=C3NCCN32)cc1 | > 20 | > 20
C=CCn1c(N)cc(=O)n(CC)c1=O [AMINOMETRADINE] | > 20 | > 20
CCCCCCCCCCCCCCCC(=O)NCCO [PALMIDROL] | > 20 | > 20
Cc1cc(C2CCCCC2)n(O)c(=O)c1 [CICLOPIROX] | > 20 | > 20
O=C(O)[C@H]1CCCNC1 [(S)-NIPECOTIC ACID] | > 20 | > 20
CCCCCCCC(=O)O [OCTANOIC ACID] | > 20 | > 20

Compound | IC50 [µM] | IC50 (read-out: pIC50 (converted)) [µM]
CCCCc1nc2cc(/C=C/C(=O)NO)ccc2n1CCN(CC)CC [PRACINOSTAT] | > 20 | > 20
Cc1ccc(-n2nccn2)c(C(=O)N2CCN(c3nc4cc(Cl)ccc4o3)CC[C@H]2C)c1 [SUVOREXANT] | > 20 | > 20
O=C(O)CC[C@H]1CC[C@](c2cc(F)ccc2F)(S(=O)(=O)c2ccc(Cl)cc2)CC1 | > 20 | > 20
N#CC[C@@H](C1CCCC1)n1cc(-c2ncnc3[nH]ccc23)cn1 | > 20 | > 20
C=C1CC[C@@]2(O)[C@H]3Cc4ccc(O)c5c4[C@@]2(CCN3CC2CC2)[C@H]1O5 | > 20 | > 20
Nc1nc2[nH]cnc2c(=S)[nH]1 [THIOGUANINE] | > 20 | > 20
CCOC(=O)c1c(N)sc2c1CCN(Cc1ccccc1)C2 [TINORIDINE] | > 20 | > 20
Oc1ccc2c(c1)[C@@]13CCCC[C@@]1(O)[C@@H](C2)N(CC1CCC1)CC3 [BUTORPHANOL] | > 20 | > 20
CC(=O)Nc1c(I)cc(I)c(C(=O)O)c1I [ACETRIZOIC ACID] | > 20 | > 20
O=C(O)/C=C/C=C/c1ccc2c(c1)OCO2 [PIPERIC ACID] | > 20 | > 20
CC1NC(=O)COC1c1ccccc1 (configuration not stated) [FENMETRAMIDE] | > 20 | > 20
CCS(=O)(=O)N1CCN(c2ccc(Nc3ncc(C(N)=O)c(NC4CC4)n3)cc2)CC1 [CERDULATINIB] | > 20 | > 20
COc1ccc2c3c1O[C@H]1[C@@H](O)C=C[C@H]4C(C2)N(C)CCC341 (some centres not stated) | > 20 | > 20
CC[C@H]1OC(=O)[C@H](C)C(=O)[C@H](C)[C@@H](O[C@@H]2O[C@H](C)C[C@H](N(C)C)[C@H]2O)[C@](C)(OCC=Cc2cnc3ccccc3c2)C[C@@H](C)C(=O)[C@H](C)[C@H]2NC(=O)O[C@@]21C [CETHROMYCIN] | > 20 | > 20
CC(=O)OC1CCC2(C)C(=CCC3C2CCC2(C)C(OC(=O)c4ccccc4)CCC32)C1 (configuration not stated) | > 20 | > 20
CC(C)CCCC(C)C1CCC2C3CC[C@H]4CC(O)CCC4(C)C3CCC12C (some centres not stated) | > 20 | > 20
C[C@]12CCCN1CC1=NNC(=O)c3cc(F)cc4[nH]c2c1c34 [PAMIPARIB] | > 20 | > 20
C[C@H](COC(=O)[C@@H](N)Cc1ccc(O)c(O)c1)OC(=O)c1ccccc1 | > 20 | > 20
